In publication PMC9505067, “Synthesis of Hydantoin Androgen Receptor Antagonists and Study on Their Antagonistic Activity” (Molecules, 2022):
Like-named read-outs stand apart in the source and are kept apart here.

Experiments:
LNCaP cells = assay: Anti-proliferative activity assay in LNCaP cells (CCK-8); assay type: cell-based; conditions: 72 h treatment, normalized relative to DMSO-control treated cells, means ± SD, concentration not given
Protocol: We performed experiments accordingly to detect the anti-proliferative effect of compounds using the prostate cancer LNCaP cell line. The measurement of proliferative activity was performed after treatment with a concentration range of each compound for 72 h.
LNCaP cells were cultured in RPMI-1640 medium (Life Technologies, Carlsbad, CA, USA) supplemented with 10% (v/v) fetal bovine serum, 1% sodium pyruvate and 1% L-Glutamine. The cells were seeded into 96-well plates at a density of 8 × 10^4 cells per well. After 24 h incubation, the culture medium was removed and the cells were cultivated in the medium supplemented with 2% (v/v) fetal bovine serum for 2 days and then treated with different concentrations of test compounds for 3 days. Cell viability was measured with the CCK-8 kit (Dojindo).

androgen receptor (AR) = target: T1, androgen receptor (AR) (Homo sapiens, UniProt P10275); assay: AR antagonist luciferase gene reporter assay (AR plasmid pSVAR0 + MMTV-Luc, DHT at EC80)
T1 sequence (P10275 1-920): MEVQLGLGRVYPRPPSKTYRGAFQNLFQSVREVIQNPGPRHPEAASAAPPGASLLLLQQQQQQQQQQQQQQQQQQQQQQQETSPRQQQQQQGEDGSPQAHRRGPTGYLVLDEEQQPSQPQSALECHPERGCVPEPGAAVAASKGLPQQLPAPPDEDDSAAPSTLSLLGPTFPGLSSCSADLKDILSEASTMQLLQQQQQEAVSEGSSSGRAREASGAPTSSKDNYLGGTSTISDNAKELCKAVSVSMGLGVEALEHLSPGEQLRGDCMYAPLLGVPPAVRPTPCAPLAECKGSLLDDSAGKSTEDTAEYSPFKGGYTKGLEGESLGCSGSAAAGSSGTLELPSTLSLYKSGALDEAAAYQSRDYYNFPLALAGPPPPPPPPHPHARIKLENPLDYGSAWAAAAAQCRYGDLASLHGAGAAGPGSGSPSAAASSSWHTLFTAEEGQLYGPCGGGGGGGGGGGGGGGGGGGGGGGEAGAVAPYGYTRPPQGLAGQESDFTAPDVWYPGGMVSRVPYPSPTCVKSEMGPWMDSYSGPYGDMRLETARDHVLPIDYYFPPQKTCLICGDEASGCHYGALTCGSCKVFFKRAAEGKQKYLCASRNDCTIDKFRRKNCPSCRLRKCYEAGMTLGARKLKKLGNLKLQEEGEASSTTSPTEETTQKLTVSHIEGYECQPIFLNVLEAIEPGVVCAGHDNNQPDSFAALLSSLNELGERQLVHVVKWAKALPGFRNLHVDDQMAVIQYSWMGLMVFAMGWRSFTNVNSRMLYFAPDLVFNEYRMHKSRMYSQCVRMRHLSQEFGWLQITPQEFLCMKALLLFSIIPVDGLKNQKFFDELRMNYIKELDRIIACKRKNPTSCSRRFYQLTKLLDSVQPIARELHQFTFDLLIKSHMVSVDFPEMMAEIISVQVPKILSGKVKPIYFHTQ

[1] = Antagonist Activity in CV-1 IC50, luciferase reporter in AR-transfected cells, DHT at EC80, 24 h incubation, means ± SD of three independent experiments
[2] = luciferase reporter in AR-transfected cells, DHT at EC80, 24 h, enzalutamide = 100, means ± SD of three independent experiments

SMILES | Proliferative/Anti-Proliferative Activity in LNCAP (LNCaP cells) [%] | melting point [°C] | Antagonist Activity in CV-1 Efficacy (androgen receptor (AR)) [%] | IC50 (androgen receptor (AR); [1]) [nM] | IC50 (androgen receptor (AR)) [nM] | Antagonist Activity in CV-1 Efficacy (androgen receptor (AR); [2]) [%]
CC1(CO)C(=O)N(c2ccc(C#N)c(C(F)(F)F)c2)C(=S)N1c1ccccc1 (stereo not drawn) [6a, 4-(4-(hydroxymethyl)-4-methyl-5-oxo-3-phenyl-2-thioxoimidazolidin-1-yl)-2-(trifluoromethyl)benzonitrile] | 149.3 ± 14.2 | 216 to 219 | 101 ± 6.7 | 46.8 ± 6.2 |  | 
CC1(CO)C(=O)N(c2ccc(C#N)c(C(F)(F)F)c2)C(=S)N1c1ccc(F)cc1 (stereo not drawn) [6c, 4-(3-(4-fluorophenyl)-4-(hydroxymethyl)-4-methyl-5-oxo-2-thioxoimidazolidin-1-yl)-2-(trifluoromethyl)benzonitrile] | 118.7 ± 22.1 | 231 to 233 | 91 ± 5.9 | 46.2 ± 4.1 |  | 
CC1(CO)C(=O)N(c2cnc(C#N)c(C(F)(F)F)c2)C(=S)N1c1ccccc1 (stereo not drawn) [19a, 5-(4-(hydroxymethyl)-4-methyl-5-oxo-3-phenyl-2-thioxoimidazolidin-1-yl)-3-(trifluoromethyl)picolinonitrile] | 122.8 ± 16.8 | 203 to 205 | 61.27 ± 12.44 | 18.4 ± 8.65 |  | 
CC1(CO)C(=O)N(c2cnc(C#N)c(C(F)(F)F)c2)C(=S)N1c1ccc(F)cc1 (stereo not drawn) [19b, 5-(3-(4-fluorophenyl)-4-(hydroxymethyl)-4-methyl-5-oxo-2-thioxoimidazolidin-1-yl)-3-(trifluoromethyl)picolinonitrile] | 65.7 ± 20.5 | 181 to 183 |  |  | 32.5 ± 22.1 | 75.55 ± 11.87
CN1CCC(Oc2ccc(N3C(=S)N(c4cnc(C#N)c(C(F)(F)F)c4)C(=O)C3(C)CO)cc2)CC1 (stereo not drawn) [19d, 5-(4-(hydroxymethyl)-4-methyl-3-(4-((1-methylpiperidin-4-yl)oxy)phenyl)-5-oxo-2-thioxoimidazolidin-1-yl)-3-(trifluoromethyl)picolinonitrile] |  | 119 to 121 |  |  | 139 ± 28.1 | 81.64 ± 5.92
C[C@]12CCC(=O)C[C@@H]1CC[C@@H]1[C@@H]2CC[C@]2(C)[C@@H](O)CC[C@@H]12 [DHT, reference compound] | 186.7 ± 5.6 |  |  |  |  | 
CNC(=O)c1ccc(N2C(=S)N(c3ccc(C#N)c(C(F)(F)F)c3)C(=O)C2(C)C)cc1F [Enzalutamide, reference compound] | 71.4 ± 7.8 |  |  |  |  | 
CC(=O)Nc1ccc(N2C(=S)N(c3ccc(C#N)c(C(F)(F)F)c3)C(=O)C2(C)CO)cc1 (stereo not drawn) [compound 9, N-(4-(3-(4-cyano-3-(trifluoromethyl)phenyl)-5-(hydroxymethyl)-5-methyl-4-oxo-2-thioxoimidazolidin-1-yl)phenyl)acetamide] |  | 126 to 128 | 95 ± 3.1 | 939 ± 124 |  | 
CC(=O)Nc1ccc(N2C(=O)N(c3ccc(C#N)c(C(F)(F)F)c3)C(=O)C2(C)CO)cc1 (stereo not drawn) [compound 10, N-(4-(3-(4-cyano-3-(trifluoromethyl)phenyl)-5-(hydroxymethyl)-5-methyl-2,4-dioxoimidazolidin-1-yl)phenyl)acetamide] |  | 124 to 126 | 84 ± 8.6 | > 5000 |  | 
